Consider 50 compounds from patent US5948786A, “Piperidinylpyrimidine derivatives” (Sumitomo Pharmaceuticals Company, Limited, priority 1996, dated 1999).

The test system of experiment [1] is TNF α production from human peripheral blood mononuclear cells (PBMC). The experiment is described as follows: Inhibitory activity of compound on TNF α production from PBMC. Type of experiment: cell-based. Here is the method: TNF α was induced by 10 μg/ml of LPS (E. coli O111B4, DIFCO, Detroit, Mich., USA) the cells were cultured for 18 hours at 37° C. A compound of the present invention was dissolved in DMSO and added to the culture simultaneously with LPS. […] Each well of the plate first was incubated at room temperature with biotinylated anti-mouse TNF α polyclonal antibodies (PharMingen) for 45 minutes, then with peroxidase-conjugated streptavidin (Kirkegaard & Perry Laboratories Inc., Gaitherburg, Md., USA) for 30 minutes. After each incubation, the plate was washed 4 to 8 times with PBS containing 0.2% Tween 20. TMB (Kirkegaard & Perry Laboratories Inc.) was the peroxidase substrate used and, the absorbance of each well was quantified at 450 nm by a microplatereader (Molecular Devices Corp., CA, USA). TNF α levels in the supernatant were quantified with rm-TNF α as the standard. Inhibitory activity of TNF α production was also quantified using human peripheral blood mononuclear cells(PBMC) instead of PEC's. Results are shown in table 9, 10, 11, 12, 13, 14, 15, 16, 17, 18, 19 and 20.

In experiment [2] the test system is TNF α production from mouse macrophages. The experiment is described as follows: Inhibitory activity of compound on TNF α Production from mouse macrophages (LPS-induced PEC's). Type of experiment: cell-based. The settings on record: Macrophage, LPS 10 μg/ml, 18 hours. As for the experimental part:
BALB/c mice (female, 5-7 weeks old, Charles River Japan, Tokyo, Japan) were injected i.p. with 1 ml of 2.4% thioglycollate broth. After 4 days, the mice were sacrificed. Peritoneal exudated cells (PEC's) were collected from the peritoneal cavity by washing with minimum essential medium (MEM, Handai biseibutubyou kenkyukai, Osaka, Japan) containing 5 U/ml heparin, 1% fetal bovine serum (FBS, Filtron, Victoria, Australia) and antibiotics. The cells were washed two times with MEM, suspended with MEM containing 10% FBS (complete MEM, cMEM) and seeded into 96-well culture plates (Costar, Cambridge, Mass., USA) at 2×10^5 cells/well. The cells were incubated for 1 hour at 37° C. in a humidified 5% CO2 incubator and washed two times to remove non-adherent cells.
TNF α was induced by 10 μg/ml of LPS (E. coli O111B4, DIFCO, Detroit, Mich., USA) the cells were cultured for 18 hours at 37° C. A compound of the present invention was dissolved in DMSO and added to the culture simultaneously with LPS. The final DMSO concentration was below 0.1%. The TNF α concentration in supernatant and recombinant mouse TNF α standard (rm-TNF α, Genzyme, Mass., USA) were incubated overnight at 4° C. in a 96-well plate coated with anti-mouse TNF α monoclonal antibody (PharMingen, San Diego, Calif., USA) that previously had been blocked with 10% FBS. Each well of the plate first was incubated at room temperature with biotinylated anti-mouse TNF α polyclonal antibodies (PharMingen) for 45 minutes, then with peroxidase-conjugated streptavidin (Kirkegaard & Perry Laboratories Inc., Gaitherburg, Md., USA) for 30 minutes. After each incubation, the plate was washed 4 to 8 times with PBS containing 0.2% Tween 20. TMB (Kirkegaard & Perry Laboratories Inc.) was the peroxidase substrate used and, the absorbance of each well was quantified at 450 nm by a microplatereader (Molecular Devices Corp., CA, USA). TNF α levels in the supernatant were quantified with rm-TNF α as the standard.

A word on the inhibition: it is the change of the read-out against control, counted positive when it falls. Take `COc1ccc(Cc2cc(C3CCN(C(=O)c4ccc5c(c4)OCCO5)CC3)nc(N)n2)cc1` [Example 291]: the inhibition at 30 µM in experiment [1] was 88%.
Same read-out and setting: as for `COc1ccc(Cc2cc(C3CCN(C(=O)c4ccc5[nH]ccc5c4)CC3)nc(N)n2)cc1` [Example 290], the figure is 101%.
Still for that read-out and setting: as for `COc1ccc(Cc2cc(C3CCN(C(=O)c4ccc(OC)c(O)c4)CC3)nc(N)n2)cc1` [Example 301], the figure is 88%; as for `COc1ccc(Cc2cc(C3CCN(C(=O)c4ccc(F)c(F)c4)CC3)nc(N)n2)cc1` [Example 292], 66%.
The same measure, in the same setting: with `COc1ccc(Cc2cc(C3CCN(C(=O)c4ccc5[nH]cnc5c4)CC3)nc(N)n2)cc1` [Example 289] the figure was 93%.
In the case of `COc1ccc(Cc2cc(C3CCN(C(=O)c4ccc(O)c(OC)c4)CC3)nc(N)n2)cc1` [Example 300], the inhibition at 30 µM in experiment [1] was determined as 80%.
On the same count and under the same terms, as for `COc1ccc(Cc2cc(C3CCN(C(=O)c4ccc(O)c(O)c4)CC3)nc(N)n2)cc1` [Example 302, 2-Amino-4-[1-(3,4-dihydroxybenzoyl)-4-piperidinyl]-6-(4-methoxyphenylmethyl) pyrimidine], the figure is 86%.
Still for that read-out and setting: with `Nc1nc(Cc2ccc(O)cc2)cc(C2CCN(C(=O)c3ccc4c(c3)OCO4)CC2)n1` [Example 315, 2-Amino-4-(4-hydroxyphenylmethyl)-6-[1-(3,4-methylenedioxybenzoyl)-4-piperidinyl] pyrimidine] the figure was 86%.
For `COc1ccc(Cc2cc(C3CCN(C(=O)Cc4ccccc4OC)CC3)nc(N)n2)cc1` [Example 222], in experiment [2], the inhibition at 30 µM came to 36%.
On the same count and under the same terms, with `COc1ccc(Cc2cc(C3CCN(C(=O)c4c(Cl)ccc(Cl)c4Cl)CC3)nc(N)n2)cc1` [Example 219] the figure was 75%; with `COc1ccc(Cc2cc(C3CCN(C(=O)CCO)CC3)nc(N)n2)cc1` [Example 177], 46%; with `COc1cccc(C(=O)N2CCC(c3nc(N)nc4ccccc34)CC2)c1` [Example 33], 18%.
The same measure, in the same setting: with `COc1ccc2nc(N)nc(C3CCN(C(=O)c4ccc([N+](=O)[O-])cc4)CC3)c2c1` [Example 116] the figure was 23%; with `COc1ccc(CC(=O)N2CCC(c3cc(-c4ccc(OC)cc4)nc(N)n3)CC2)cc1` [Example 158], 61%; with `COc1ccc(Cc2cc(C3CCN(C(=O)c4ccc(OC)c(OC)c4OC)CC3)nc(N)n2)cc1` [Example 213], 43%.
Same read-out and setting: with `COc1ccc2nc(N)nc(C3CCN(C(=O)c4ccc(Cl)cc4)CC3)c2c1` [Example 113] the figure was -1%.
Turning to `COc1ccc(Cc2cc(C3CCN(C(=O)Cc4ccccc4Cl)CC3)nc(N)n2)cc1` [Example 225], in experiment [2], the inhibition at 30 µM is 43%.
In the case of `COc1ccc(Cc2cc(C3CCN(C(=O)c4cccc(OC)c4OC)CC3)nc(N)n2)cc1` [Example 197], in experiment [2], the inhibition at 30 µM is 29%.
On the same count and under the same terms, as for `Nc1nc(-c2ccccc2)cc(C2CCN(C(=O)Cc3ccc([N+](=O)[O-])cc3)CC2)n1` [Example 144], the figure is 6%.
The same measure, in the same setting: with `Nc1nc(C2CCN(C(=O)Cc3ccc(Cl)cc3Cl)CC2)c2ccccc2n1` [Example 94] the figure was 78%.
On the same count and under the same terms, as for `COc1ccc(C(=O)N2CCC(c3nc(N)nc4ccc(OC)cc34)CC2)cc1` [Example 110], the figure is 21%.
As to `Nc1nc(C2CCN(C(=O)c3cccc(Cl)c3)CC2)c2ccccc2n1` [Example 36], in experiment [2], the inhibition at 30 µM turned out to be 42%.
Still for that read-out and setting: with `COc1ccc(CC(=O)N2CCC(c3nc(N)nc4ccc(OC)cc34)CC2)cc1` [Example 120] the figure was 31%; with `COc1ccc(Cc2cc(C3CCN(C(=O)Cc4cccc(OC)c4)CC3)nc(N)n2)cc1` [Example 223], 82%.
The same measure, in the same setting: as for `COc1ccc(Cc2cc(C3CCN(C(=O)c4cc(Cl)ccc4Cl)CC3)nc(N)n2)cc1` [Example 205], the figure is 51%; as for `COc1ccc(Cc2cc(C3CCN(C(=O)c4cccnc4)CC3)nc(N)n2)cc1` [Example 195], 29%; as for `Nc1nc(C2CCN(C(=O)c3ccccc3Cl)CC2)c2ccccc2n1` [Example 35], 72%.
The same measure, in the same setting: with `CCCCCCCCCC(=O)N1CCC(c2cc(-c3ccccc3)nc(N)n2)CC1` [Example 138] the figure was 70%; with `Nc1nc(Cc2ccc(Cl)cc2)cc(C2CCN(C(=O)Cc3ccc(Cl)cc3)CC2)n1` [Example 252], 96%.
`CCCCCCCCCC(=O)N1CCC(c2cc(-c3ccc(Cl)cc3)nc(N)n2)CC1` [Example 149]: the inhibition at 30 µM in experiment [2] came out at 57%.
The same measure, in the same setting: with `Nc1nc(C2CCN(C(=O)c3ccc(Cl)cc3)CC2)c2ccccc2n1` [Example 37] the figure was 4%; with `CCCCCCC(=O)N1CCC(c2cc(Cc3ccc(OC)cc3)nc(N)n2)CC1` [Example 167], 52%; with `COc1ccc(Cc2cc(C3CCN(C(=O)c4cccc(OC)c4)CC3)nc(N)n2)cc1` [Example 179], 82%.
Same read-out and setting: as for `COc1ccc(Cc2cc(C3CCN(C(=O)c4ccc(Cl)c(Cl)c4)CC3)nc(N)n2)cc1` [Example 207], the figure is 76%; as for `CCCCCC(=O)N1CCC(c2nc(N)nc3ccccc23)CC1` [Example 19], 10%; as for `COc1ccc(Cc2cc(C3CCN(C(=O)c4cc(OC)c(OC)c(OC)c4)CC3)nc(N)n2)cc1` [Example 217], 44%.
The same measure, in the same setting: with `NCCCCCCCCCCC(=O)N1CCC(c2nc(N)nc3ccccc23)CC1` [Example 286, 2-amino-4-[1-(11-aminoundecanoyl)-4-piperidinyl]quinazoline] the figure was 67%; with `Nc1nc(C2CCN(C(=O)Cc3ccc([N+](=O)[O-])cc3)CC2)c2cc(Cl)ccc2n1` [Example 133], 35%; with `COc1ccc(Cc2cc(C3CCN(C(=O)Cc4ccc(Cl)cc4)CC3)nc(N)n2)cc1` [Example 227], 63%.
Regarding `Nc1nc(-c2ccc(Cl)cc2)cc(C2CCN(C(=O)c3ccccc3)CC2)n1` [Example 6, 2-Amino-4-(1-benzoyl-4-piperidinyl)-6-(4-chlorophenyl)pyrimidine], the inhibition at 30 µM in experiment [2] was 78%.
As for `Nc1nc(C2CCN(C(=O)CCCCCCCCCO)CC2)c2ccccc2n1` [Example 30], the inhibition at 30 µM in experiment [2] is 64%.
The same measure, in the same setting: as for `COc1ccc(Cc2cc(C3CCN(C(=O)c4ccccc4Cl)CC3)nc(N)n2)cc1` [Example 181], the figure is 26%.
The same measure, in the same setting: with `Nc1nc(C2CCN(C(=O)c3cccc4ccccc34)CC2)c2ccccc2n1` [Example 66] the figure was 32%.
The same measure, in the same setting: with `CCCC(=O)N1CCC(c2nc(N)nc3ccccc23)CC1` [Example 17] the figure was 8%.
As to `CCCCCCCCCC(=O)N1CCC(c2cc(-c3ccc(OC)cc3)nc(N)n2)CC1` [Example 156], in experiment [2], the inhibition at 30 µM was found to be 74%.
Same read-out and setting: with `COc1ccc(Cc2cc(C3CCN(C(=O)c4c(OC)ccc(OC)c4OC)CC3)nc(N)n2)cc1` [Example 214] the figure was 13%.
Take `CCCCCCCC(=O)N1CCC(c2cc(-c3ccccc3)nc(N)n2)CC1` [Example 136]: the inhibition at 30 µM in experiment [2] worked out at 48%.
Take `COc1cccc(C(=O)N2CCC(c3nc(N)nc4ccccc34)CC2)c1OC` [Example 52]: the inhibition at 30 µM in experiment [2] stood at 20%.
On the same count and under the same terms, as for `Nc1nc(C2CCN(C(=O)Cc3ccc(Cl)cc3)CC2)c2cc(Cl)ccc2n1` [Example 132], the figure is 55%.
Same read-out and setting: with `COc1ccc(Cc2cc(C3CCN(C(=O)c4ccc(OC)cc4)CC3)nc(N)n2)cc1` [Example 180] the figure was 70%.
